{"source": "patent US6340680B1", "about": "“Oxazinoquinolones useful for the treatment of viral infections” (Pharmacia and Upjohn Company, priority 1999, dated 2002)", "type_in_all_cases": "biochemical", "key": {"HCMV polymerase": {"target": "T1, HCMV polymerase (Human cytomegalovirus, UniProt P08546)", "T1 construct": "made in house; host or cells: recombinant baculovirus-infected SF-9 cells", "T1 sequence (P08546 whole entry)": "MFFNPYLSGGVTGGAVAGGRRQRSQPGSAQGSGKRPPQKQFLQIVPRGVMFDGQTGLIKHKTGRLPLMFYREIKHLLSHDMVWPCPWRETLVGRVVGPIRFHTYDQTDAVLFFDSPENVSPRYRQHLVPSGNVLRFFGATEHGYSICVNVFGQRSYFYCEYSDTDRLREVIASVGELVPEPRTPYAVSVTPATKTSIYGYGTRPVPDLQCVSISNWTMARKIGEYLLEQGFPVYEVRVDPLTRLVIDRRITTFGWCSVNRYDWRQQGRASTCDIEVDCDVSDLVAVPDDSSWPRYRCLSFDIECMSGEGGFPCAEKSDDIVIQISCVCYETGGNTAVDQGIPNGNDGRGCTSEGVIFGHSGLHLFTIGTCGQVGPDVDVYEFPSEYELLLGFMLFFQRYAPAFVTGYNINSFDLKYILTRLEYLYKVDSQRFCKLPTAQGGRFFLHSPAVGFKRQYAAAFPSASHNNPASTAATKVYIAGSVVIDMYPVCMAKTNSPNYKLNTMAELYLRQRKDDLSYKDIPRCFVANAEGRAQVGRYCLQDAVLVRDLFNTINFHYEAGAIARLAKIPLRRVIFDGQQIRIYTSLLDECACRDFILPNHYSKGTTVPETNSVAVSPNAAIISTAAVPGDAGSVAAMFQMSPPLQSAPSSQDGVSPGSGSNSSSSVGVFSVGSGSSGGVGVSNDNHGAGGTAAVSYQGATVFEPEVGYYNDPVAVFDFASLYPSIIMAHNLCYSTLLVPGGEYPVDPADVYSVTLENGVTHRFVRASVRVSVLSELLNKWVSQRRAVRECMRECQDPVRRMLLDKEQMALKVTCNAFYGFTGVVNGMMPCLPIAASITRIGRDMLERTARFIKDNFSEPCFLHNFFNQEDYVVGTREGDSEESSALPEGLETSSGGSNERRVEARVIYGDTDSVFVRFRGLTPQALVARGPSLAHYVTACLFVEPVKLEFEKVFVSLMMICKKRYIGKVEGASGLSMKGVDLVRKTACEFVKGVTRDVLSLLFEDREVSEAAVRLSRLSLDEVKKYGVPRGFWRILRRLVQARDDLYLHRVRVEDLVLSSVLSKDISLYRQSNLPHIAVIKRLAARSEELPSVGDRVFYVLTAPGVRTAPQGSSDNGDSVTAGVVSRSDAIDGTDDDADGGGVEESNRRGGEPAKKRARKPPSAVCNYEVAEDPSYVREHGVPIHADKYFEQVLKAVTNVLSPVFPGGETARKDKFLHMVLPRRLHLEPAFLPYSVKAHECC", "assay": "HCMV polymerase assay (scintillation proximity assay, modified version)", "conditions": "modified SPA assay, compounds diluted in 100% DMSO, 4.5 mM DTT", "protocol": "(§1) The HCMV polymerase assay is performed using a scintillation proximity assay (SPA) as described in several references, such as N. D. Cook, et al., Pharmaceutical Manufacturing International, pages 49-53 (1992); K. Takeuchi, Laboratory Practice, September issue (1992); U.S. Pat. No. 4,568,649 (1986); which are incorporated by reference herein. Reactions are performed in 96-well plates. The assay is conducted in 100 μl volume with 5.4 mM HEPES (pH 7.5), 11.7 mM KCl, 4.5 mM MgCl2, 0.36 mg/ml BSA, and 90 nM ^3H-dTTP. Assays are run with and without CHAPS, (3-[(3-Cholamidopropyl)-dimethylammonio]-1-propane-sulfonate) at a final concentration of 2 mM. HCMV polymerase is diluted in enzyme dilution buffer containing 50% glycerol, 250 mM NaCl, 10 mM HEPES (pH 7.5), 100 μg/ml BSA, and 0.01% sodium azide. The HCMV polymerase, which is expressed in recombinant baculovirus-infected SF-9 cells and purified according to literature procedures, is added at 10% (or 10 μl) of the final reaction volume, i.e., 100 μl. Compounds are diluted in 50% DMSO and 10 μl are added to each well. Control wells contain an equivalent concentration of DMSO. Unless noted otherwise, reactions are initiated via the addition of 6 nM biotinylated poly(dA)-oligo(dT) template/primer to reaction mixtures containing the enzyme, substrate, and compounds of interest. Plates are incubated in a 25 C or 37 C H2O bath and terminated via the addition of 40 μl/reaction of 0.5 M EDTA (pH 8) per well. Reactions are terminated within the time-frame during which substrate incorporation is linear and varied depending upon the enzyme and conditions used, i.e., 30 min. for HCMV polymerase. Ten μl of streptavidin-SPA beads (20 mg/ml in PBS/10% glycerol) are added following termination of the reaction. Plates are incubated 10 min. at 37 C, then equilibrated to room temperature, and counted on a Packard Topcount. Linear regressions are performed and IC50's are calculated using computer software.\nA modified version of the above HCMV polymerase assay is performed as described above, but with the following changes: Compounds are diluted in 100% DMSO until final dilution into assay buffer. In the previous assay, compounds are diluted in 50% DMSO. 4.5 mM dithiotherotol (DTT) is added to the polymerase buffer. […] Other viral polymerase assays are performed using procedures similar to those described above."}, "HSV polymerase": {"target": "HSV polymerase (Human herpesvirus 1, UniProt P04293)", "sequence (P04293 whole entry)": "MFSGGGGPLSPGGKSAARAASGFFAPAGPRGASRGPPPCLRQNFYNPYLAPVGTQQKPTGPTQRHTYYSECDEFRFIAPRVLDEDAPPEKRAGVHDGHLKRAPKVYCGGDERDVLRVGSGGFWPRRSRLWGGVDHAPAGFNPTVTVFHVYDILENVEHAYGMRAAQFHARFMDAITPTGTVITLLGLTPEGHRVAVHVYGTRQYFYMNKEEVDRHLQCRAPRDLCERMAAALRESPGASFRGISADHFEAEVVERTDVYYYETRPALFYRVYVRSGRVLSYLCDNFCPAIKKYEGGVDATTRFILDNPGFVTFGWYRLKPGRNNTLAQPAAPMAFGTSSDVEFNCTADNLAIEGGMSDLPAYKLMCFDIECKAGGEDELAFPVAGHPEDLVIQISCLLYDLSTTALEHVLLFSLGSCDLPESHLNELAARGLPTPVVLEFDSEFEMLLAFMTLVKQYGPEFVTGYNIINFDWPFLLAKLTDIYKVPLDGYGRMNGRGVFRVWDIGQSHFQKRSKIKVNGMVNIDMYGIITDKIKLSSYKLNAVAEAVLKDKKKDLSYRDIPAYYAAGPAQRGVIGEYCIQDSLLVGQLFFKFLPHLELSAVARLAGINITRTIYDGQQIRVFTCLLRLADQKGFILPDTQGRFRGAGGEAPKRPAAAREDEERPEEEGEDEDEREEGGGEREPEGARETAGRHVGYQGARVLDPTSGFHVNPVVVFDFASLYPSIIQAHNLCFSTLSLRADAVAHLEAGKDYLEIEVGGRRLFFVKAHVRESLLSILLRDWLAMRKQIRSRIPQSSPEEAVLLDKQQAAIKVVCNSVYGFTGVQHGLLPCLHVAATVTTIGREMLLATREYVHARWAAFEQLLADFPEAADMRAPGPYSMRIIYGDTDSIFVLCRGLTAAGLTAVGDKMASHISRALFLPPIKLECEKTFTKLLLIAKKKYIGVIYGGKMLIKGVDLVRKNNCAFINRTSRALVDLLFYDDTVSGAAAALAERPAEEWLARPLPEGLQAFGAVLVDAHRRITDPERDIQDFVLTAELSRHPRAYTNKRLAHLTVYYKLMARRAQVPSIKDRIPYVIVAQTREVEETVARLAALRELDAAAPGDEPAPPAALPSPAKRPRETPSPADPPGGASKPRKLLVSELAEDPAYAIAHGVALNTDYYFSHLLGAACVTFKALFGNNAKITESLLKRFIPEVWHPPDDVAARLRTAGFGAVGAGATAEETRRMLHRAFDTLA", "assay": "HSV polymerase assay (similar procedure)", "protocol": "as §1, with “Unless noted otherwise, reactions are initiated via the addition of 6 nM biotinylated poly(dA)-oligo(dT) template/primer to reaction mixtures containing the enzyme, substrate, and compounds of interest. Plates are incubated in a 25 C or 37 C H2O bath and terminated via the addition of 40 μl/reaction of 0.5 M EDTA (pH 8) per well. Reactions are terminated within the time-frame during which substrate incorporation is linear and varied depending upon the enzyme and conditions used, i.e., 30 min. for HCMV polymerase. Ten μl of streptavidin-SPA beads (20 mg/ml in PBS/10% glycerol) are added following termination of the reaction.” left out, “software. […]” for “software.”"}, "VZV polymerase": {"target": "VZV polymerase (Varicella-zoster virus, UniProt P09252)", "sequence (P09252 whole entry)": "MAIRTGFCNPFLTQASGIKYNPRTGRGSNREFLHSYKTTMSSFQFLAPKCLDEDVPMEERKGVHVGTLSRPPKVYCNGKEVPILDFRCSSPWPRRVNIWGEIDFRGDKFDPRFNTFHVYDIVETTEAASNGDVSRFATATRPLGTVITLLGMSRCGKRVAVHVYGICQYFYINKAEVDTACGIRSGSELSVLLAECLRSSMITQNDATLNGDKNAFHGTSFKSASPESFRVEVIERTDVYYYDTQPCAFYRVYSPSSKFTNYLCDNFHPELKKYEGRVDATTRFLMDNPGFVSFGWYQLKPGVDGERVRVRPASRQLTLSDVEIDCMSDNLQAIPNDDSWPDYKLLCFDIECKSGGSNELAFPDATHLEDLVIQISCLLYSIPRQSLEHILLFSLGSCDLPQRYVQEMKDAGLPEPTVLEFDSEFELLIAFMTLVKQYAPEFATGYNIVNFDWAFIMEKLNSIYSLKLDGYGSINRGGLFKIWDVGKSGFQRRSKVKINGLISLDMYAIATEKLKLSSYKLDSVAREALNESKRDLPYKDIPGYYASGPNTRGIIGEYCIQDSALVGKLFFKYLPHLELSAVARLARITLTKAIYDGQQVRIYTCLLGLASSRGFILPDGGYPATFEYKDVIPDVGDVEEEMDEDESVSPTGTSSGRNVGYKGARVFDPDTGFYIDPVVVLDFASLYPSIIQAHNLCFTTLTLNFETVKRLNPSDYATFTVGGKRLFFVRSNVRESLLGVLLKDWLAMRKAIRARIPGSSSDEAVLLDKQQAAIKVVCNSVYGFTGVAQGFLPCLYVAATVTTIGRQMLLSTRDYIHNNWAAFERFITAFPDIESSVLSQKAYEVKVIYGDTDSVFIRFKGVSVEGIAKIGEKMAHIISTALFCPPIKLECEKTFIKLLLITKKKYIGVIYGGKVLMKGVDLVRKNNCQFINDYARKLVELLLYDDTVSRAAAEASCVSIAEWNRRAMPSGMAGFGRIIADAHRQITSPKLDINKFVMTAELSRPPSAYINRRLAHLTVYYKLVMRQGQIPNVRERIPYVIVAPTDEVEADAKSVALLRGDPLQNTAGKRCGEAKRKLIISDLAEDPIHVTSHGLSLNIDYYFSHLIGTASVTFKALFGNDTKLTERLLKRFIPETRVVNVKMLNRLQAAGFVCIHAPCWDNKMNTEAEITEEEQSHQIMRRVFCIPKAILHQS", "assay": "VZV polymerase assay (similar procedure)", "protocol": "as §1, with “Unless noted otherwise, reactions are initiated via the addition of 6 nM biotinylated poly(dA)-oligo(dT) template/primer to reaction mixtures containing the enzyme, substrate, and compounds of interest. Plates are incubated in a 25 C or 37 C H2O bath and terminated via the addition of 40 μl/reaction of 0.5 M EDTA (pH 8) per well. Reactions are terminated within the time-frame during which substrate incorporation is linear and varied depending upon the enzyme and conditions used, i.e., 30 min. for HCMV polymerase. Ten μl of streptavidin-SPA beads (20 mg/ml in PBS/10% glycerol) are added following termination of the reaction.” left out, “software. […]” for “software.”"}}, "data": [{"smiles": "O=C(NCc1ccc(Cl)cc1)c1cn2c3c(cc(C#CCO)cc3c1=O)OCC2", "note": "[Example 2, N-(4-Chlorobenzyl)-9-(3-hydroxy-1-propynyl)-7-oxo-2,3-dihydro-7H-[1,4]oxazino[2,3,4-ij]quinoline-6-carboxamide]", "values": [{"measurement": "IC50", "setting": "HCMV polymerase", "result": 1200, "unit": "nM"}]}, {"smiles": "O=C(NCc1ccc(Cl)cc1)c1cn2c3c(cc(CCCO)cc3c1=O)OCC2", "note": "[Example 3A, N-(4-Chlorobenzyl)-9-(3-hydroxypropyl)-7-oxo-2,3-dihydro-7H-[1,4]oxazino[2,3,4-ij]quinoline-6-carboxamide]", "values": [{"measurement": "IC50", "setting": "HSV polymerase", "result": 440, "unit": "nM"}, {"measurement": "IC50", "setting": "VZV polymerase", "result": 210, "unit": "nM"}, {"measurement": "IC50", "setting": "HCMV polymerase", "result": "< 310", "unit": "nM"}]}, {"smiles": "CCCc1cc2c3c(c1)c(=O)c(C(=O)NCc1ccc(Cl)cc1)cn3CCO2", "note": "[Example 3B, N-(4-Chlorobenzyl)-7-oxo-9-propyl-2,3-dihydro-7H-[1,4]oxazino[2,3,4-ij]quinoline-6-carboxamide]", "values": [{"measurement": "IC50", "setting": "HCMV polymerase", "result": 1800, "unit": "nM"}]}, {"smiles": "O=C(NCc1ccc(Cl)cc1)c1cn2c3c(cc(CN4CCOCC4)cc3c1=O)OCC2", "note": "[Example 1, N-(4-Chlorobenzyl)-9-(4-morpholinylmethyl)-7-oxo-2,3-dihydro-7H-[1,4]oxazino[2,3,4-ij]quinoline-6-carboxamide]", "values": [{"measurement": "IC50", "setting": "HCMV polymerase", "result": 480, "unit": "nM"}]}]}
